From patent US11547697B2, “Heterocyclic compounds and uses thereof” (MILLENNIUM PHARMACEUTICALS, INC., priority 2009, dated 2023)
Where two headings read alike, the source gives them in different places.

How the values were obtained:
[1] = 5 μM, human plasma, 37° C.; cited from earlier work
p110β/p85α = p110β/p85α (Homo sapiens (Human), UniProt P42338); assay: PI 3-Kinase (human) HTRF assay, p110β/p85α; type: biochemical; conditions: read-out: PI3K β IC50
p110δ/p85α = p110δ/p85α (Homo sapiens (Human), UniProt O00329); assay: PI 3-Kinase (human) HTRF assay, p110δ/p85α; type: biochemical; conditions: read-out: PI3K δ IC50
Sequence of p110δ/p85α (O00329 whole entry): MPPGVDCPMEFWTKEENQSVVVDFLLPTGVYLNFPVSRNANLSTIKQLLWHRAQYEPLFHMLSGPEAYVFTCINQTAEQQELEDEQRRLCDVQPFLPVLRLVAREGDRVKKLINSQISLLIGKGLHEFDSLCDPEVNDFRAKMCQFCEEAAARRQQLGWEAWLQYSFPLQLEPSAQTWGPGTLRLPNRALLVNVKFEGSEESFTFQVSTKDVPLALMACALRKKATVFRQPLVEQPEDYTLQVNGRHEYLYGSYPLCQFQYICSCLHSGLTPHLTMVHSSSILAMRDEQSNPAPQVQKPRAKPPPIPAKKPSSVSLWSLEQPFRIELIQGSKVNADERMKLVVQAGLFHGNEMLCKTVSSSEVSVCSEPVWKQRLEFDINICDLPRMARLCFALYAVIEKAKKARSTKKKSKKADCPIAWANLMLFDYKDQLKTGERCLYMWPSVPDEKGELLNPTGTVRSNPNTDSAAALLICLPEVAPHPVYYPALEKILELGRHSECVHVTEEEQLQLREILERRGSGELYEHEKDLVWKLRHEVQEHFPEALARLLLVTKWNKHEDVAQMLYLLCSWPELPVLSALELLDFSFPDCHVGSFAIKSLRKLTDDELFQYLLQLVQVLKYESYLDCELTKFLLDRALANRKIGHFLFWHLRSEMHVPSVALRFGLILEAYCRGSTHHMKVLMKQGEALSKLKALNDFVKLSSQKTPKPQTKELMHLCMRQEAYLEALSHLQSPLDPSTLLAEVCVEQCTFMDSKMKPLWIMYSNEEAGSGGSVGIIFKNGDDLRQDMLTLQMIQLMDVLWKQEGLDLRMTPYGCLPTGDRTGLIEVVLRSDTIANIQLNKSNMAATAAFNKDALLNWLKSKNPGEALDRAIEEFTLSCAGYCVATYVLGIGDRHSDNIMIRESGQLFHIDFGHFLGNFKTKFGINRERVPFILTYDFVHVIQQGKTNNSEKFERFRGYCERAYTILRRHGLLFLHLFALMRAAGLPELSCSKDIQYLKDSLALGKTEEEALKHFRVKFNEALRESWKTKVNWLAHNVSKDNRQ
Sequence of p110δ/p85α (P27986 whole entry partner): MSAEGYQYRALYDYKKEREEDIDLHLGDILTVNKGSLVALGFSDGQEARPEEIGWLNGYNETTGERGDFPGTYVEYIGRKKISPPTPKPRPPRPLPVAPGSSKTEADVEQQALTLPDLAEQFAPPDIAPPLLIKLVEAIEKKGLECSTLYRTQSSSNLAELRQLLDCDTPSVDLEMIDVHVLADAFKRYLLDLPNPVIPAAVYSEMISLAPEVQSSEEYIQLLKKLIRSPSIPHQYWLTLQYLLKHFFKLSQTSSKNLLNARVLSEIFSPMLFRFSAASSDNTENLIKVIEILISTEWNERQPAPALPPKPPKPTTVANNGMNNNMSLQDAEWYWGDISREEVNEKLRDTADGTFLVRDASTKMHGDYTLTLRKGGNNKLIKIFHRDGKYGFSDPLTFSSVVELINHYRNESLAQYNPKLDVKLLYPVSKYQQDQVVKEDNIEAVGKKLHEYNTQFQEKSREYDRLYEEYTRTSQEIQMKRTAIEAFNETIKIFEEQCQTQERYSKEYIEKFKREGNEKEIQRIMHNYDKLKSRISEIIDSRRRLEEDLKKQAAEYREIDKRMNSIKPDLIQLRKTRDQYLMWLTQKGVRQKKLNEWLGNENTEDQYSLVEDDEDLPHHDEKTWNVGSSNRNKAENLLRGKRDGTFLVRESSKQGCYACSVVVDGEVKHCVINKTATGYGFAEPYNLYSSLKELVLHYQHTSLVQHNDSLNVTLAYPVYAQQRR

p110α/p85α = p110α/p85α (Homo sapiens (Human), UniProt P42336); assay: PI 3-Kinase (human) HTRF assay, p110α/p85α; type: biochemical; conditions: read-out: PI3K α IC50
Sequence of p110α/p85α (P42336 whole entry): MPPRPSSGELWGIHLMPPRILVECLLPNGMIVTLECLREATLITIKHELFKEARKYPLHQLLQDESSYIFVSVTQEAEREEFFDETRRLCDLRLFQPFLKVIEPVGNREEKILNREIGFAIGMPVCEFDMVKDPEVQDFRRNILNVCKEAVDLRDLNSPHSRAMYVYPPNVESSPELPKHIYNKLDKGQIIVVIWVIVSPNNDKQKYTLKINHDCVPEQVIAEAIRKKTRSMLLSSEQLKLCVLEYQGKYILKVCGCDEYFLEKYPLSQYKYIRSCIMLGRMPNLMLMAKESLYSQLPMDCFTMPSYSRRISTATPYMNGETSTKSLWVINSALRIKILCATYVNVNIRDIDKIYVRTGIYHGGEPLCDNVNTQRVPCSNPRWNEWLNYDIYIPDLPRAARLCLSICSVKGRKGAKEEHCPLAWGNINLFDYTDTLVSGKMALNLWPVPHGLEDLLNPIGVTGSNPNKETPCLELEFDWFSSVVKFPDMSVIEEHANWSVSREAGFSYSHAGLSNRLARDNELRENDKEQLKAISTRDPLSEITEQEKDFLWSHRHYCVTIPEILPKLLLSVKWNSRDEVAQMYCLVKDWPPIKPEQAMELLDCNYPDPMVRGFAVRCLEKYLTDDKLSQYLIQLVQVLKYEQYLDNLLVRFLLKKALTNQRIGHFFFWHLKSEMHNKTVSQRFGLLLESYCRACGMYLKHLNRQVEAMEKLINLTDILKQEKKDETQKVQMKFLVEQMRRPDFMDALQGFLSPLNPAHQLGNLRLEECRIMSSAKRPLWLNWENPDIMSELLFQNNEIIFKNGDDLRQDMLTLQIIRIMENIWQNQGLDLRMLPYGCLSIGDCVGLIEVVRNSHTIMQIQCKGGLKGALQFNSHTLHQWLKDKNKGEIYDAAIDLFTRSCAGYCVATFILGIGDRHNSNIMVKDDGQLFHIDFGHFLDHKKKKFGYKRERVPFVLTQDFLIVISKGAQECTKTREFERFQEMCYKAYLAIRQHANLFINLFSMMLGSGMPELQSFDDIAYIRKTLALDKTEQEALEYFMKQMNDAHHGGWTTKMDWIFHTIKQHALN
Sequence of p110α/p85α (P27986 whole entry partner): as the sequence (P27986 whole entry partner) above

recombinant mTOR = recombinant mTOR (Homo sapiens (Human), UniProt P42345); assay: mTOR inhibition assay (radiometric or LanthaScreen TR-FRET); type: biochemical; conditions: read-out: MTORC IC50
Sequence of recombinant mTOR (P42345 1360-2549): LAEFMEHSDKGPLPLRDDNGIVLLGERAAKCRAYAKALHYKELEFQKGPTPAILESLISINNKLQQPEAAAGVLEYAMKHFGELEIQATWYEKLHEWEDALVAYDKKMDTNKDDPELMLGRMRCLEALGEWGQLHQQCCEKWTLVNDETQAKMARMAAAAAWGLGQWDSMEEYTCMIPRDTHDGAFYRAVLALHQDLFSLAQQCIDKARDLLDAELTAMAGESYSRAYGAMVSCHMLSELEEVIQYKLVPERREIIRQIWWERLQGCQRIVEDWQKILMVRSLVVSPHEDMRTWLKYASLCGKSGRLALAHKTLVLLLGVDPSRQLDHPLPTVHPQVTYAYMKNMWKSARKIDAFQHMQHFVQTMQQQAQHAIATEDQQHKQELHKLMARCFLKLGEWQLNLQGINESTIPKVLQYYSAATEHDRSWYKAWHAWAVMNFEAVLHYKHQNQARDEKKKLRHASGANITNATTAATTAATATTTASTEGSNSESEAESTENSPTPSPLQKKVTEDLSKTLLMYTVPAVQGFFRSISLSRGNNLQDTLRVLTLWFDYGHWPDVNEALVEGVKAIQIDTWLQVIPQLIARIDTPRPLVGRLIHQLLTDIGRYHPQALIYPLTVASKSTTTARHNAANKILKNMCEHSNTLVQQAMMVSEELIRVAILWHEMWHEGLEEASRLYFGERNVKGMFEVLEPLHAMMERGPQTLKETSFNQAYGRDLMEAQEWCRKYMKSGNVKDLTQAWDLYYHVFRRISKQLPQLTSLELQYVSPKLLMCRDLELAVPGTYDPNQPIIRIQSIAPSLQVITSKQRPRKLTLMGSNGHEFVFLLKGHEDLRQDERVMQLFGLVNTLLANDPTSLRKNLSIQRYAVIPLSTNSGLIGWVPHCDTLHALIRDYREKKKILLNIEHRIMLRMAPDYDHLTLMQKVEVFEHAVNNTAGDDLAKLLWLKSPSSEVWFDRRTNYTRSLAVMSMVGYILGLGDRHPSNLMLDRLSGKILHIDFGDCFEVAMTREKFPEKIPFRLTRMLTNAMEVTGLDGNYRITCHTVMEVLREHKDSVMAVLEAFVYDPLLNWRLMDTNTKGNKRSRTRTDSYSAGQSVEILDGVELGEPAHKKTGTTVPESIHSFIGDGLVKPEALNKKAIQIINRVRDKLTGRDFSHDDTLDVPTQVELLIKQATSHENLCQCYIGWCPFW
Experimental: The compounds described herein can be tested against recombinant mTOR (Invitrogen) in an assay containing 50 mM HEPES, pH 7.5, 1 mM EGTA, 10 mM MgCl2, 2.5 mM, 0.01% Tween, 10 pM ATP (2.5 μCi of μ-32P-ATP), and 3 μg/mL BSA. R^at recombinant PHAS-1/4EBP1 (Calbiochem; 2 mg/mL) is used as a substrate. Reactions are terminated by spotting onto nitrocellulose, which is washed with 1M NaCl/1% phosphoric acid (approximately 6 times, 5-10 minutes each). Sheets are dried and the transferred radioactivity quantitated by phosphorimaging.
For instance, one can use Invitrogen's LanthaScreen™ Kinase assay to test the inhibitors of mTOR disclosed herein. This assay is a time resolved FRET platform that measures the phosphorylation of GFP labeled 4EBP1 by mTOR kinase. The kinase reaction is performed in a white 384 well microtitre plate. The total reaction volume is 20 ul per well and the reaction buffer composition is 50 mM HEPES pH7.5, 0.01% Polysorbate 20, 1 mM EGTA, 10 mM MnCl2, and 2 mM DTT. In the first step, each well receives 2 ul of test compound in 20% dimethylsulphoxide resulting in a 2% DMSO final concentration. Next, 8 ul of mTOR diluted in reaction buffer is added per well for a 60 ng/ml final concentration. To start the reaction, 10 ul of an ATP/GFP-4EBP1 mixture (diluted in reaction buffer) is added per well for a final concentration of 10 μM ATP and 0.5 μM GFP-4EBP1. The plate is sealed and incubated for 1 hour at room temperature. […] The plate is sealed, incubated for 1 hour at room temperature, and then read on a plate reader set up for LanthaScreen™ TR-FRET. Data is analyzed and IC50s are generated using GraphPad Prism 5.

[2] = test system: Human tumor cell lines (e.g., MCF7, U-87 MG, MDA-MB-468, PC-3); assay: Tumor cell line proliferation assay (Alamar Blue); type: cell-based; conditions: PC3 cells
Experimental: The ability of one or more subject compounds to inhibit tumor cell line proliferation is determined according to standard procedures known in the art. For instance, an in vitro cellular proliferation assay can be performed to measure the metabolic activity of live cells. The assay is performed in a 96 well microtiter plate using Alamar Blue reduction. Human tumor cell lines are obtained from ATCC (e.g., MCF7, U-87 MG, MDA-MB-468, PC-3), grown to confluency in T75 flasks, trypsinized with 0.25% trypsin, washed one time with Tumor Cell Media (DMEM+10% FBS), and plated in 90 ul at 5,000 cells/well in Tumor Cell Media. A compound disclosed herein is diluted in Tumor Cell Media and added in a 10 ul volume. Plates are incubated for 72 hours at 37 C and 5% CO2. A volume of 10 uL of Alamar Blue reagent is added to each well and plates are incubated for 3 hours at 37 C and 5% CO2. Alamar Blue fluoresce is read at 560Ex/590Em, and IC50 values are calculated using GraphPad Prism 5.

p110γ = p110γ (Homo sapiens (Human), UniProt P48736); assay: PI 3-Kinase (human) HTRF assay, p110γ; type: biochemical; conditions: read-out: PI3K γ IC50
[3] = test system: tumor cells with a PI3Kα mutation (e.g., MDA-MB-361 and T47D); assay: Proliferation of tumor cells with PI3Kα mutation; type: cell-based; conditions: Homo sapiens, T47D cells
HCT116 cells = assay: Cell arrest assay, alone and in combination with MEK inhibitor; type: cell-based, human; conditions: 3 μM compound 54 or 0.3 μM PD0325901, 20 hours
Experimental: Cells are then incubated in the presence of DMSO or inhibitor for 20 hours. The number of cells at each stage in the cell cycle is determined and expressed as a percent of the total, with an increase in the number of cells arrested at pre-GO/G1 indicating effective inhibition of cell cycle progression.

[4] = test system: PI3K/Akt/mTor signaling in blood cells; assay: Kinase signaling in blood (phosflow); type: cell-based; conditions: splenocytes or peripheral blood mononuclear cells, anti-CD3 stimulation
Experimental: PI3K/Akt/mTor signaling is measured in blood cells using the phosflow method (Methods Enzymol. 2007; 434:131-54). The advantage of this method is that it is by nature a single cell assay so that cellular heterogeneity can be detected rather than population averages. This allows concurrent distinction of signaling states in different populations defined by other markers. Phosflow is also highly quantitative. To test the effects of one or more compounds disclosed herein, unfractionated splenocytes, or peripheral blood mononuclear cells are stimulated with anti-CD3 to initiate T-cell receptor signaling. The cells are then fixed and stained for surface markers and intracellular phosphoproteins.
Similarly, aliquots of whole blood are incubated for 15 minutes with vehicle (e.g., 0.1% DMSO) or kinase inhibitors at various concentrations, before addition of stimuli to crosslink the T cell receptor (TCR) (anti-CD3 with secondary antibody) or the B cell receptor (BCR) using anti-kappa light chain antibody (Fab′2 fragments). After approximately 5 and 15 minutes, samples are fixed (e.g., with cold 4% paraformaldehyde) and used for phosflow. […] The level of phosphrylation of kinase substrates such as Akt and S6 are then measured by incubating the fixed cells with labeled antibodies specific to the phosphorylated isoforms of these proteins. The population of cells is then analyzed by flow cytometry.

[5] = read-out: PC3 proliferation (nM)*
[6] = read-out: T47D proliferation IC50
[7] = read-out: PC3 proliferation IC50

Row | Structure (SMILES) | IC50 (p110β/p85α) [nM] | IC50 (p110δ/p85α) [nM] | IC50 (p110α/p85α) [nM] | IC50 (recombinant mTOR) [nM] | IC50 (p110γ) [nM] | IC50 ([3]; read-out: T47D proliferation) [nM] | IC50 (p110β/p85α; in vitro) [nM] | IC50 (p110δ/p85α; in vitro) [nM] | IC50 (p110α/p85α; in vitro) [nM] | IC50 [3, 6] [nM] | IC50 (recombinant mTOR; in vitro) [nM] | IC50 (p110γ; in vitro) [nM] | also measured
1 | CCCOc1cc(N)ccc1C(=O)OCCN(CC)CC [propoxycaine] | – | – | – | – | – | – | – | – | – | – | – | – | Plasma stability of control compounds [1]: low plasma stability
2 | Nc1nc2ccc(-c3ccc4nccc(-c5ccncc5)c4c3)cc2o1 [compound 4] | < 100 | < 100 | < 100 | < 1000 | < 100 | – | – | – | – | – | – | – | IC50 [2, 5]: < 100 nM
3 | CN1CCC(Nc2ncnc3ccc(-c4ccc5oc(N)nc5c4)cc23)CC1 [compound 35] | – | < 100 | < 100 | < 10000 | < 100 | < 10000 | – | – | – | – | – | – | –
4 | Nc1nc2cc(-c3ccc4ncc(N5CC(C(=O)N6CCOCC6)C5)nc4c3)ccc2o1 [compound 169] | < 1000 | < 1000 | < 100 | < 10000 | < 1000 | < 1000 | – | – | – | – | – | – | –
5 | Nc1nc2cc(-c3ccc4ncc(-c5ccncc5)n4n3)ccc2o1 [compound 10] | < 1000 | – | < 100 | < 1000 | < 100 | < 1000 | – | – | – | – | – | – | IC50 [2, 5]: < 1000 nM
6 | Cn1c(=O)n(-c2ccc(C(C)(C)C#N)cc2)c2c3cc(-c4ccc5oc(N)nc5c4)ccc3ncc21 [compound 7] | < 100 | < 100 | < 100 | < 100 | < 100 | – | – | – | – | – | – | – | IC50 [2, 5]: < 100 nM
7 | C[C@@H]1CN(C(=O)C2CN(c3cnc4ccc(-c5ccc6oc(N)nc6c5)cc4n3)C2)CCN1 [compound 267] | – | – | – | – | – | – | < 10000 | < 1000 | < 100 | < 1000 | < 10000 | < 1000 | –
8 | CC(=O)Nc1cn2cc(-c3ccc4oc(N)nc4c3)ccc2n1 [compound 234] | – | – | – | – | – | – | < 1000 | < 100 | < 100 | < 1000 | < 1000 | < 100 | IC50 [2, 7]: < 100 nM
9 | CC(C)[N+](C)(CCOC(=O)C1c2ccccc2Oc2ccccc21)C(C)C [propantheline] | – | – | – | – | – | – | – | – | – | – | – | – | Plasma stability of control compounds [1]: intermediate plasma stability
10 | Nc1nc2cc(-c3ccc4ncc(N5CC(C(=O)N6CCN(C7CC7)CC6)C5)nc4c3)ccc2o1 [compound 276] | – | – | – | – | – | – | < 10000 | < 1000 | < 100 | < 1000 | < 10000 | < 1000 | –
11 | CN1CCN(C2CN(C(=O)c3cnc4ccc(-c5ccc6oc(N)nc6c5)cn34)C2)CC1 [compound 303] | – | – | – | – | – | – | – | < 10000 | < 100 | < 1000 | < 10000 | – | –
12 | O=C(NOC[C@H](O)CO)c1ccc(F)c(F)c1Nc1ccc(I)cc1F [PD0325901, reference compound] | – | – | – | – | – | – | – | – | – | – | – | – | Cell cycle arrest, single inhibitor versus DMSO control (HCT116 cells): some increase in cell cycle arrest by comparison to DMSO control
13 | CCOC(=O)N1CCN(c2cnc3ccc(-c4ccc5oc(N)nc5c4)cc3n2)CC1 [compound 119] | < 10000 | < 10000 | < 100 | < 10000 | < 10000 | < 10000 | – | – | – | – | – | – | –
14 | Nc1nc2cc(-c3ccc4ncc(OC5CCOCC5)nc4c3)ccc2o1 [compound 49] | – | < 10000 | < 100 | < 10000 | < 1000 | < 10000 | – | – | – | – | – | – | –
15 | Cn1cc(-c2cnc3ccc(-c4ccc5oc(N)nc5c4)cn23)cn1 [compound 41] | – | < 1000 | < 100 | < 10000 | < 1000 | < 10000 | – | – | – | – | – | – | –
16 | CC(=O)Nc1nc2ccc(-c3ccc4oc(N)nc4c3)cc2s1 [compound 231] | – | – | – | – | – | – | < 1000 | < 100 | < 100 | < 1000 | < 10000 | < 100 | IC50 [2, 7]: < 10000 nM
17 | CN1CCC(n2cnc3ccc(-c4ccc5oc(N)nc5c4)cc3c2=O)CC1 [compound 36] | – | < 10000 | < 100 | < 10000 | – | < 10000 | – | – | – | – | – | – | –
18 | Nc1nc2cc(-c3ccc4ncc(N5CCOCC5)nc4c3)ccc2o1 [compound 64] | < 1000 | – | < 100 | < 10000 | < 100 | < 10000 | – | – | – | – | – | – | –
19 | Cc1nccn1C1CN(c2cnc3ccc(-c4ccc5oc(N)nc5c4)cc3n2)C1 [compound 354] | – | – | – | – | – | – | < 10000 | < 10000 | < 100 | < 1000 | < 10000 | < 10000 | –
20 | CN1CCN(C2CN(c3cnc4ccc(-c5ccc6oc(N)nc6c5)cc4n3)C2)CC1 [compound 274] | – | – | – | – | – | – | < 10000 | < 10000 | < 100 | < 1000 | < 10000 | < 10000 | –
21 | CN1CCC(N(C)C(=O)c2cnc3ccc(-c4ccc5oc(N)nc5c4)cn23)CC1 [compound 165] | < 10000 | < 10000 | < 1000 | – | – | – | – | – | – | – | – | – | IC50 [2, 5]: < 1000 nM
22 | Nc1nc2cc(-c3ccc4ncnc(OC5CCOCC5)c4c3)ccc2o1 [compound 47] | < 1000 | < 1000 | < 100 | < 100 | < 1000 | < 1000 | – | – | – | – | – | – | –
23 | Nc1nc2cc(-c3ccc4ncc(N5CCN(C(=O)[C@@H](N)CO)CC5)nc4c3)ccc2o1 [compound 298] | – | – | – | – | – | – | < 1000 | < 10000 | < 100 | < 10000 | < 10000 | < 10000 | –
24 | Nc1nc2cc(-c3ccc4ncc(-c5ccncc5)n4c3)ccc2o1 [compound 6] | < 10000 | < 1000 | < 100 | < 10000 | < 100 | < 1000 | – | – | – | – | – | – | IC50 [2, 5]: < 10000 nM
25 | CN1CCN(C(=O)C2CN(c3cnc4ccc(-c5ccc6oc(N)nc6c5)cc4n3)C2)CC1 [compound 170] | < 1000 | < 1000 | < 100 | < 10000 | < 10000 | < 1000 | – | – | – | – | – | – | –
26 | CC(C)[C@@H](N)C(=O)N1CCN(c2cnc3ccc(-c4ccc5oc(N)nc5c4)cc3n2)CC1 [compound 270] | – | – | – | – | – | – | < 1000 | < 1000 | < 100 | < 1000 | < 10000 | < 1000 | –
27 | CS(=O)(=O)N1CCN(Cc2cc3nc(-c4ccc5oc(N)nc5c4)nc(N4CCOCC4)c3s2)CC1 [compound 129] | < 1000 | < 1000 | < 100 | < 1000 | < 100 | – | – | – | – | – | – | – | IC50 [2, 5]: < 1000 nM
28 | CO[C@H]1C[C@@H]2CC[C@@H](C)[C@@](O)(O2)C(=O)C(=O)N2CCCC[C@H]2C(=O)O[C@H]([C@H](C)C[C@@H]2CC[C@@H](O)[C@H](OC)C2)CC(=O)[C@H](C)/C=C(\C)[C@@H](O)[C@@H](OC)C(=O)[C@H](C)C[C@H](C)/C=C/C=C/C=C/1C [rapamycin] | – | – | – | – | – | – | – | – | – | – | – | – | anti-CD3 mediated Akt -S473 phosphorylation [4]: enhances Akt phosphorylation; anti-CD3 mediated S6 phosphorylation [4]: inhibits S6 phosphorylation
29 | CN1CCN(c2cnc3ccc(-c4ccc5oc(N)nc5c4)cc3n2)CC1=O [compound 277] | – | – | – | – | – | – | < 1000 | < 10000 | < 100 | < 1000 | < 10000 | < 1000 | –
30 | CC(=O)Nc1nc2ccc(-c3ccc4nccc(-c5ccncc5)c4c3)cc2s1 [compound 2] | – | – | < 1000 | – | < 1000 | – | – | – | – | – | – | – | IC50 [2, 5]: < 10000 nM
